These are literature values, as cited in patent US20070184110A1, “Dipyridamole extended-release formulations and process for preparing same” (priority 2006, published 2007).

For this data set the following is noted: above a pH of 4.

Take `OCCN(CCO)c1nc(N2CCCCC2)c2nc(N(CCO)CCO)nc(N3CCCCC3)c2n1` [Dipyridamole, 2,6-bis-(diethanolamino)-4,8-dipiperidino-(5,4-d)-pyrimidine]: the solubility in water entry was “practically insoluble”.
